Test results: article PMC3500442 (ACS Chemical Biology, 2012)

Target: T1, MJ0408 (MptD, archaeal DHNA) (Methanocaldococcus jannaschii, UniProt Q57851)
T1 sequence (Q57851 1-121): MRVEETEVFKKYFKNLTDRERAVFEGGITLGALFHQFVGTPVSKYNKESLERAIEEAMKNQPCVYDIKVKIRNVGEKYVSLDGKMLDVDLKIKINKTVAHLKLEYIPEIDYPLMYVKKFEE
Experiment: HPLC fluorescence after iodine oxidation
Assay type: biochemical
Conditions: 110 uM H2Neo, 8 mM MgCl2, 16 mM DTT, TES/KCl pH 7.4, 70 °C, argon

Compound | HPLC fluorescence after iodine oxidation
Nc1nc2c(c(=O)[nH]1)N=C(CO)CN2 [6-HMD, 6-hydroxymethyl-7,8-dihydropterin] | it was found to catalyze the formation of 6-HMD from H2Neo
Nc1nc2c(c(=O)[nH]1)N=C([C@H](O)[C@H](O)CO)CN2 [H2Neo, 7,8-dihydroneopterin] | it was found to catalyze the formation of 6-HMD from H2Neo
